Literature values in patent US20240173233A1, “COSMETIC SACHET FOR REDUCING AGE-RELATED SYMPTOMS IN HUMAN SKIN” (Bloo Pharmapeutica Inc., priority 2022, published 2024).

Assays:
skin fibroblast = conditions: in comparison with other widely used general and mitochondrial-targeting antioxidants
[1] = system: cultured human skin fibroblasts derived from healthy donors and from patients with progeria
elastin and collagen 2A1 = conditions: MB treatment of skin

SMILES: CN(C)c1ccc2nc3ccc(=[N+](C)C)cc-3sc2c1.[Cl-] [methylene blue, [7-(dimethylamino)phenothiazine-3-ylidene]-dimethylazanium chloride]
- dermis thickness (3D skin model): increased skin hydration and dermis thickness
- skin hydration (3D skin model): increased skin hydration
- skin viability (3D skin model): improved skin viability
- wound healing (3D skin model): promoted wound healing
- delaying cellular senescence (skin fibroblast): more effective
- stimulating skin fibroblast proliferation (skin fibroblast): more effective
- reactive oxygen species (ROS) scavenging efficacy [1]: potent reactive oxygen species (ROS) scavenging efficacy
- expression of extracellular matrix proteins (elastin and collagen 2A1): upregulation of elastin and collagen 2A1
